Assay results as given in article PMC4164784, “4E-BPs require non-canonical 4E-binding motifs and a lateral surface of eIF4E to repress translation” (Nature Communications, 2014).

What was measured:
[1] = test system: endogenous eIF4E and HA-tagged 4E-BPs in S2 cells; assay: Immunofluorescence localization in S2 cells; type: cell-based, Drosophila melanogaster; conditions: S2 cells, LMB 100 nM, 12 h
CRM1 = test system: CRM1; design: method as in PMID 15465908, PMID 10856257, PMID 9190288; conditions: cited from earlier work
eIF4E = conditions: 4E-BP1,2 non-canonical motifs; cited from earlier work
Description: The immunoprecipitation assays shown in Fig. 1e–g indicate that similar to CUP, Thor and 4E-T contain NC motifs that interact with the lateral binding surface of eIF4E. In human 4E-BP1,2, the NC IPGVTS/T motif (located C-terminally to the C motif), increases the binding affinity of the proteins for eIF4E by approximately three orders of magnitude. However, the IPGVTS/T motif is not conserved across the animal kingdom (Supplementary Fig. 2c). Nevertheless, several hydrophobic residues are present in the corresponding region in Dm Thor (residues Pro76–Pro84; Supplementary Fig. 2c). || Owing to their lack of conservation, it has remained unclear whether non-canonical motifs are present in all 4E-BPs[38]. […] At the functional level, non-canonical motifs have been proposed to play an auxiliary role and have been mainly implicated in the regulation of the affinity of eIF4E for the mRNA cap structure through allosteric effects. Specifically, the binding of the 4E-BP1,2 non-canonical ...

Compound | nuclear accumulation of 4E-BP upon LMB (in words) [1] | inhibition of nuclear export by CRM1 (in words) (CRM1) | effect of NC motif binding on affinity of eIF4E for the cap structure (in words) (eIF4E)
CCC(=C/[C@H](C)C/C=C/C(C)=C/[C@@H](C)C(=O)[C@@H](C)[C@H](O)[C@@H](C)C/C(C)=C/C(=O)O)/C=C/[C@@H]1OC(=O)C=C[C@@H]1C [LMB, Leptomycin B, reference compound] | induced the nuclear accumulation of CUP and 4E-T proteins | inhibits nuclear export by CRM1 | –
human 4E-BP1,2: human eIF4E-binding proteins 1 and 2 with NC IPGVTS/T motif | – | – | increases the affinity for the cap structure
